Results published in patent publication US9802899B2, “Heterocyclic compounds as pesticides” (BAYER CROPSCIENCE AG, priority 2012, dated 2017).
Where two headings read alike, the source gives them in different places. Each block holds one compound with its values, some of them ahead of it.

Assays:
[1] = Determination of the log P values by HPLC (formic acid method); type: physicochemical; settings: reversed-phase column (C 18), acidic range (pH 3.4), 55° C.; for chromatographic logP: reversed-phase HPLC column (C 18)
Procedure: 1) Description of Method for Determination of the Log P Values (Formic Acid Method)
Eluents for determination in the acidic range (pH 3.4):
Eluent A: acetonitrile+1 ml of formic acid/liter. Eluent B: water+0.9 ml of formic acid/liter.
The lambda max values were determined in the maxima of the chromatographic signals using the UV spectra from 200 nm to 400 nm.

Lucilia cuprina larvae = experiment: Lucilia cuprina test (LUCICU); type: in vivo; settings: application rate 100 ppm; larvae on treated horse meat; after 2 days
Procedure: Lucilia cuprina Test (LUCICU)
(§1) Solvent: dimethyl sulphoxide
To produce a suitable preparation of active compound, 10 mg of active compound are mixed with 0.5 ml of dimethyl sulphoxide, and the concentrate is diluted with water to the desired concentration.
Vessels containing horse meat treated with the active compound preparation of the desired concentration are populated with about 20 Lucilia cuprina larvae.
After 2 days, the kill in % is determined 100% means that all of the larvae have been killed; 0% means that none of the larvae have been killed.

Spodoptera frugiperda = Spodoptera frugiperda spray test (SPODFR); type: in vivo; settings: caterpillars on maize leaf discs, after 7 days
Procedure: Spodoptera frugiperda Spray Test (SPODFR)
(§2) Solvents: 78.0 parts by weight of acetone • • 1.5 parts by weight of dimethylformamide
(§3) Emulsifier: 0.5 part by weight of alkylaryl polyglycol ether
(§4) To produce a suitable preparation of active compound, 1 part by weight of active compound is mixed with the stated amounts of solvents and emulsifier, and the concentrate is diluted with emulsifier-containing water to the desired concentration.
Leaf discs of maize (Zea mays) are sprayed with an active compound formulation of the desired concentration and, after drying, populated with caterpillars of the armyworm (Spodoptera frugiperda).
After 7 days, the efficacy in % is determined. 100% means that all of the caterpillars have been killed; 0% means that none of the caterpillars have been killed.

Myzus persicae = Myzus persicae spray test (MYZUPE); type: in vivo; settings: Chinese cabbage leaf discs, after 6 days
Procedure: Myzus persicae Spray Test (MYZUPE)
Solvents: 78 parts by weight of acetone • • 1.5 parts by weight of dimethylformamide
as §3, §4
Discs of Chinese cabbage leaves (Brassica pekinensis) infested by all stages of the green peach aphid (Myzus persicae) are sprayed with an active compound preparation of the desired concentration.
After 6 days, the efficacy in % is determined 100% here means that all of the aphids have been killed; 0% means that no aphids have been killed.

Cooperia curticei = Cooperia curticei test (COOPCU); type: in vivo
Procedure: Cooperia curticei Test (COOPCU)
as §1
To produce a suitable preparation of active compound, 10 mg of active compound are mixed with 0.5 ml of dimethyl sulphoxide, and the concentrate is diluted with Ringer solution to the desired concentration.
Vessels containing the active compound preparation of the desired concentration are populated with about 40 nematode larvae (Cooperia curticei).
After 5 days, the kill in % is determined 100% means that all of the larvae have been killed; 0% means that none of the larvae have been killed.

Phaedon cochleariae = Phaedon cochleariae spray test (PHAECO); type: in vivo; settings: foliar, 168 h, application rate 500 g/ha, larvae on Chinese cabbage leaf discs, after 7 days, read-out: efficacy
Procedure: Phaedon cochleariae Spray Test (PHAECO)
as §2, §3, §4
After 7 days, the efficacy in % is determined. 100% means that all of the beetle larvae have been killed; 0% means that none of the beetle larvae have been killed.

Meloidogyne incognita = Meloidogyne incognita test (MELGIN); type: in vivo; settings: Meloidogyne incognita, 336 h; application rate 20 ppm; lettuce in sand; after 14 days; read-out: nematicidal effect (formation of galls)
Procedure: Meloidogyne incognita Test (MELGIN)
Solvent: 125.0 parts by weight of acetone
To prepare a suitable active compound preparation, 1 part by weight of active compound is mixed with the stated amount of solvent and the concentrate is diluted with water to the desired concentration.
Vessels are filled with sand, active compound solution, an egg/larvae suspension of the root-knot nematode (Meloidogyne incognita) and lettuce seeds. The lettuce seeds germinate and the plants develop. On the roots, galls are formed.
After 14 days, the nematicidal effect in % is determined by the formation of galls. 100% means that no galls have been found; 0% means that the number of galls on the treated plants corresponds to the untreated control.

Ctenocephalides felis = Ctenocephalides felis oral test (CTECFE); type: in vivo; settings: application rate 100 ppm in citrated cattle blood; adult fleas; after 2 days
Procedure: Ctenocephalides felis—Oral Test (CTECFE)
Solvent: 1 part by weight of dimethyl sulphoxide
To produce a suitable preparation of active compound, 10 mg of active compound are mixed with 0.5 ml of dimethyl sulphoxide. A portion of the concentrate is diluted with citrated cattle blood, and the desired concentration is prepared.
About 20 unfed adult fleas (Ctenocephalides felis) are placed into a chamber which is closed at the top and bottom with gauze. A metal cylinder whose bottom end is closed with a parafilm is placed onto the chamber. The cylinder contains the blood/active compound preparation, which can be imbibed by the fleas through the Parafilm membrane.
After 2 days, the kill in % is determined 100% means that all fleas have been killed; 0% means that none of the fleas have been killed.

spider mites = experiment: spider mite test, efficacy in % after 6 days; type: in vivo; settings: application rate of 500 g/ha, 100% = all spider mites killed, 0% = none killed
Procedure: After 6 days, the efficacy in % is determined. 100% means that all of the spider mites have been killed; 0% means that none of the spider mites have been killed.

Boophilus microplus = Boophilus microplus test (DIP); type: in vivo; settings: application rate 100 ppm, after 7 days by laying of fertile eggs, 100% = no fertile eggs
Procedure: Boophilus microplus Test (DIP)
Test animals: adult engorged Boophilus microplus females of the SP-resistant Parkhurst strain
as §1
10 mg of active compound are dissolved in 0.5 ml of dimethyl sulphoxide. For the purpose of preparing a suitable formulation, the active compound solution is diluted with water to the concentration desired in each case.
This active compound preparation is pipetted into tubes. 8-10 ticks are transferred into a further tube with holes. The tube is immersed into the active compound formulation, and all ticks are completely wetted. After the liquid has run out, the ticks are transferred onto filter discs in plastic dishes and stored in a climate-controlled room.
The activity is assessed after 7 days by laying of fertile eggs. Eggs whose fertility is not visible from the outside are stored in a climate-controlled cabinet until the larvae hatch. An efficacy of 100% means that none of the ticks has laid any fertile eggs.

SMILES: O=C(Nc1ccn(-c2cc(Cl)ccc2Cl)n1)c1ccccc1Cl [Compound I-1-118]
- efficacy (Spodoptera frugiperda; application rate 100 g/ha): 83%
- log P [1]: 3.36

SMILES: N#CCN(C(=O)c1ccccc1Cl)c1ccn(-c2ccccc2Cl)n1 [Compound I-1-25]
- efficacy (Myzus persicae; application rate 500 g/ha): 80%
- log P [1]: 3.04

SMILES: O=C(Nc1ccn(-c2ccccc2Cl)n1)c1c(F)cccc1Cl [Compound I-1-37]
- log P [1]: 2.84
- efficacy (kill) (Lucilia cuprina larvae): 90%

SMILES: O=C(Nc1ccn(-c2ncccc2F)n1)c1cccnc1C(F)(F)F [Compound I-1-133]
- efficacy (Myzus persicae; application rate 500 g/ha): 90%
- log P [1]: 1.83

SMILES: O=C(Nc1nn(-c2ccccc2Cl)cc1Br)c1ccccc1Cl [Compound I-1-29]
- efficacy (Spodoptera frugiperda; application rate 500 g/ha): 83%
- log P [1]: 2.99

SMILES: O=C(Nc1cnn(-c2ncccc2Cl)n1)c1ccsc1I [Compound I-2-58]
- efficacy (Myzus persicae; application rate 500 g/ha): 90%
- log P [1]: 2.44

SMILES: O=C(Nc1ccn(-c2ccccc2C(F)(F)F)n1)c1ccccc1Br [Compound I-1-186]
- log P [1]: 2.96
- efficacy (kill) (Lucilia cuprina larvae): 80%

SMILES: O=C(Nc1ccn(-c2c(F)cccc2F)c1)c1ccccc1C(F)(F)F [Compound I-3-1, N-[1-(2,6-Difluorophenyl)-1H-pyrrol-3-yl]-2-(trifluoromethyl)benzamide]
- pest or weed control at 20 ppm (Cooperia curticei; Cooperia curticei, 120 h, read-out: efficacy (kill)): 100%
- chromatographic logP [1]: 2.96
- efficacy (kill) (Lucilia cuprina larvae): 80%
- pest or weed control at 500 g/ha (Phaedon cochleariae): 100%
- pest or weed control at 20 ppm (Meloidogyne incognita): 90%

SMILES: O=C(Nc1nn(-c2ccccc2Cl)cc1I)c1ccccc1C(F)(F)F [Compound I-1-17, N-[4-Iodo-1-(2-chlorophenyl)-1H-pyrazol-3-yl]-2-(trifluoromethyl)benzamide]
- efficacy (Spodoptera frugiperda; application rate 500 g/ha): 83%
- chromatographic logP [1]: 3.16
- pest or weed control at 500 g/ha (Phaedon cochleariae): 100%

SMILES: O=C(Nc1ccn(-c2ccccc2Cl)n1)c1ccccc1Cl [Compound I-1-20, 2-Chloro-N-[1-(2-chlorophenyl)-1H-pyrazol-3-yl]benzamide]
- pest or weed control at 100 ppm (Cooperia curticei; Cooperia curticei, 120 h, application rate 100 ppm, nematode larvae, after 5 days, read-out: efficacy (kill)): 90%
- chromatographic logP [1]: 2.8
- efficacy (kill) (Lucilia cuprina larvae): 90%
- pest or weed control at 500 g/ha (Phaedon cochleariae): 100%
- pest or weed control at 20 ppm (Meloidogyne incognita): 90%

SMILES: CCOCN(C(=O)c1ccccc1C(F)(F)F)c1ccn(-c2c(F)cccc2F)n1 [Compound I-1-262]
- efficacy in % (spider mites): 95%
- log P [1]: 3.40

SMILES: O=C(Nc1ccn(-c2cncc(F)n2)n1)c1c(F)cccc1F [Compound I-1-403]
- efficacy (Spodoptera frugiperda; application rate 500 g/ha): 100%
- log P [1]: 2.32

SMILES: CC#CCN(C(=O)c1ccccc1C(F)(F)F)c1ccn(-c2c(F)cccc2F)n1 [Compound I-1-263]
- efficacy in % (spider mites): 95%
- log P [1]: 3.40

SMILES: O=C(Nc1ccn(-c2ccccc2Cl)n1)c1ncccc1C(F)(F)F [Compound I-1-39]
- efficacy in % (spider mites): 80%
- log P [1]: 2.99
- efficacy (Boophilus microplus): 90%

SMILES: N#CCN(C(=O)c1ccccc1C(F)(F)F)c1ccn(-c2c(F)cccc2F)n1 [Compound I-1-259]
- efficacy (Spodoptera frugiperda; application rate 500 g/ha): 100%
- log P [1]: 2.90

SMILES: Cc1ncccc1C(=O)Nc1ccn(-c2cc(F)ccc2F)n1 [Compound I-1-69]
- efficacy (kill) (Cooperia curticei; application rate 100 ppm, nematode larvae, after 5 days): 80%
- log P [1]: 1.53
- efficacy (kill) (Lucilia cuprina larvae): 90%

SMILES: O=C(Nc1ccn(-c2ncccc2Cl)n1)c1ccccc1Cl [Compound I-1-136]
- efficacy (Spodoptera frugiperda; application rate 500 g/ha): 100%
- log P [1]: 2.21

SMILES: O=C(Nc1ccn(-c2ccccc2Br)n1)c1ccccc1Cl [Compound I-1-51]
- log P [1]: 2.83
- efficacy (kill) (Lucilia cuprina larvae): 90%

Continued, in another order:

- log P [1]: 2.89
SMILES: O=C(Nc1cnn(-c2ccccc2Cl)n1)c1ccccc1Cl [Compound I-2-2]
- efficacy (kill) (Lucilia cuprina larvae): 80%

- chromatographic logP [1]: 2.97
SMILES: O=C(Nc1ccn(-c2cccc(F)c2F)n1)c1ccccc1Br [Compound I-1-63, 2-Bromo-N-[1-(2,3-difluorophenyl)-1H-pyrazol-3-yl]benzamide]
- efficacy (Myzus persicae; application rate 500 g/ha): 90%
- pest or weed control at 20 ppm (Cooperia curticei; Cooperia curticei, 120 h, application rate 20 ppm, nematode larvae, after 5 days, read-out: efficacy (kill)): 90%
- efficacy (kill) (Lucilia cuprina larvae): 80%
- pest or weed control at 500 g/ha (Phaedon cochleariae): 100%

- log P [1]: 2.20
SMILES: O=C(Nc1ccn(-c2c(F)cccc2F)n1)c1ccccc1[N+](=O)[O-] [Compound I-1-86]
- efficacy (Myzus persicae; application rate 20 g/ha): 90%

- log P [1]: 1.95
SMILES: CS(=O)(=O)c1ccccc1C(=O)Nc1ccn(-c2c(F)cccc2F)n1 [Compound I-1-80]
- efficacy (Myzus persicae; application rate 500 g/ha): 90%

- log P [1]: 2.24
SMILES: O=C(Nc1ccn(-c2ncccc2F)n1)c1ccccc1C(F)(F)F [Compound I-1-128]
- efficacy (kill) (Ctenocephalides felis): 85%

- log P [1]: 3.10
SMILES: O=C(Nc1nn(-c2ccccc2Cl)cc1Cl)c1ccccc1I [Compound I-1-34]
- efficacy (Spodoptera frugiperda; application rate 500 g/ha): 83%

- log P [1]: 2.81
SMILES: O=C(Nc1cnn(-c2c(F)cccc2F)n1)c1ccccc1I [Compound I-2-41]
- efficacy (Spodoptera frugiperda; application rate 500 g/ha): 100%

- log P [1]: 2.38
SMILES: O=C(Nc1cnn(-c2ncccc2Cl)n1)c1ccccc1C(F)(F)F [Compound I-2-10]
- efficacy (kill) (Ctenocephalides felis): 90%

- log P [1]: 2.61
SMILES: O=C(Nc1ccn(-c2ccc(F)cn2)n1)c1c(F)cccc1F [Compound I-1-598]
- efficacy in % (spider mites): 85%

- log P [1]: 2.53
SMILES: Cc1cc(NC(=O)c2ccccc2I)nn1-c1ccccc1Cl [Compound I-1-35]
- efficacy (Spodoptera frugiperda; application rate 500 g/ha): 100%

- log P [1]: 2.75
SMILES: COc1ccccc1C(=O)Nc1ccn(-c2c(F)cccc2F)n1 [Compound I-1-280]
- efficacy (Myzus persicae; application rate 500 g/ha): 90%

- log P [1]: 2.88
SMILES: O=C(Nc1cnn(-c2c(F)cccc2F)n1)c1c(F)cccc1C(F)(F)F [Compound I-2-39]
- efficacy (Myzus persicae; application rate 500 g/ha): 90%

- log P [1]: 2.45
SMILES: O=C(Nc1ccn(-c2ncc(F)cc2F)n1)c1ccccc1I [Compound I-1-145]
- efficacy (Myzus persicae; application rate 500 g/ha): 90%
- efficacy (kill) (Lucilia cuprina larvae): 90%

- log P [1]: 2.78
SMILES: O=C(Nc1ccn(-c2ccccc2F)n1)c1ccccc1Br [Compound I-1-10]
- efficacy in % (spider mites): 80%

- log P [1]: 2.59
SMILES: O=C(Nc1ccn(-c2c(F)cccc2F)n1)c1ccccc1Br [Compound I-1-82]
- efficacy (kill) (Lucilia cuprina larvae): 95%
- efficacy (Boophilus microplus): 80%
